Measurements from patent publication US20160311788A1, “Antifouling Compounds And Use Thereof” (National University of Singapore, priority 2008, published 2016).
Like-named read-outs stand apart in the source and are kept apart here.

Legend:
[1] = system: Stage II nauplii of Balanus amphitrite; experiment: barnacle toxicity assay; assay type: in vivo; settings: Table 3(b); highest concentration tested 25 μg/ml
Procedure: (§1) Pure compounds were suspended in DMSO and sonicated to obtain a stock solution of 50 mg ml^−1 in DMSO. This stock solution is stored at −20° C. in 4 ml amber screw cap vials. For the bioassays, a small volume of stock solution was added to 1 μm filtered seawater in a glass scintillation vial. This suspension was then sonicated around 10 minutes. Serial dilutions were generated to the required range of concentrations. Serial dilution of the equivalent amounts of DMSO in seawater was used as the control.
(§2) The barnacle bioassay method used follows from the method first introduced by Rittschof et al. (1992), and subsequently by other authors (Willemsen et al., 1998). This method is now standard practice for many antifouling screening of novel compounds.
Toxicity assays were modified from Rittschof et al. (1992). Stage II naupliar larvae used in tests were obtained from Balanus amphitrite adults collected from inter-tidal rock walls at Kranji mangrove, Singapore. Larvae were collected from a container of adults by attraction to a point source of light and transferred to 500 ml of fresh seawater. Next, larvae were re-concentrated with a fiber optic light and added to assays.
Duplicate assays were conducted in 2 ml glass vials (La Pha Pack® PN 11-14-0544) in 1 ml of filtered seawater for 22 to 24 hours. The assays were repeated for confirmation. There were two sets of controls, a blank control consisting of 3 tubes of seawater only, and DMSO control consisting of the equivalent dilution series with DMSO without compound). For the compounds, there were 3 tubes of each for each test concentration. The assay was initiated by addition of barnacle naupliar in 50 μl of seawater. After 22 to 24 hours of incubation at 25-27° C. solutions containing test animals were transferred to a Bogorov tray and scored as living or dead. Moribund larvae were scored as dead. Results were confirmed by repeating the assay. Data were combined and the concentration that caused 50% mortality (LD50) was calculated by probit analysis using a basic computer program (Libermann, 1983). If data were not appropriate for probit analysis, the LD50 was estimated from graphed data.

[2] = system: cyprids of Balanus amphitrite; experiment: barnacle settlement assay; assay type: in vivo; settings: for percentage of cyprids that settled: after 24 hours incubation, averaged over two trials
Procedure: as §1, §2
Barnacle settlement assays were based on methodology from Rittschof et al. (1992). Barnacle larvae from field-collected adults were reared on an algal mixture of 1:1 v/v of Tetraselmis suecica and Chaetoceros muelleri at 25° C., at approximately 5×10^5 cells per ml density. On this regime, larvae metamorphose to cyprids in 5 days. These cyprids were aged at 4° C. for 2-3 days, and 45-70% settlement after 24 hours (Willemsen et al., 1998).
Settlement tests were conducted in 7 ml neutral glass vials (Samco® T1 03N1) 34 mm by 23 mm diameter, with 20-40 cyprids per well. Test solutions were made up to twice the required final concentration. 0.5 ml of test solution was added into each well, and cyprids were transferred into each well in 0.5 ml of seawater. Assays were done in triplicate. As before, there were two sets of controls, a blank control consisting 3 tubes of seawater only, and DMSO control consisting of the equivalent dilution series with DMSO without compound. After 24 hours, larvae that had attached and metamorphosed were enumerated and the result expressed as percentage settlement. Larvae not attached were scored as not settled. The assays were repeated and the concentration that caused 50% settlement inhibition (ED50) was determined by pro bit analysis using a basic computer program (Lieberman, 1983), or by estimation from graphed data.

[3] = system: marine bacteria strain S30; experiment: disc inhibition assay, strain S30; assay type: cell-based, Bacillus borophilicus; settings: for zone of inhibition at 50 µg/disc: Bacillus, S30, 24 h
Procedure: (§3) The disc inhibition assay was used. This assay is a conventional method routinely used for screening antibacterial compounds to determine degree of susceptibility to antibacterial compounds. The diameter of the zone of inhibition is proportional to the degree of susceptibility of the bacterial strain. The compounds were tested against 13 strains of marine bacteria isolated from Singapore coastal waters.
(§4) 13 strains of marine bacteria were isolated from fouling communities located in the coastal waters around Singapore. These were characterized in earlier studies and reported in Teo et al. (U.S. patent application Ser. No. 11/265,833) and Choong et al (in prep). In addition, four reference bacterial strains were added tested: Escherichia coli (Strain K12, ATCC 15222), E. coli (strain DH5a), Pseudomonas aeruginosa (strain LMG 12228; ATCC 15692) and P. putida (strain KT2440; ATCC 47054). All the bacteria were also tested against five antibiotics: ampicillin (AMP), tetracycline (TETR), erythromycin (ERY), chloramphenicol (CHL) and streptomycin (STREP).
(§5) Disks comprising the compounds to be tested were prepared as follows. The antibacterial assay, the pure compounds were made up to a concentration of 2 mgml^−1 in DMSO. 25 μl of the stock was pipetted onto each 6 mm sterile disc (Macherey-Nagel #484000) to obtain 50 μg of compound per disc. Equivalent volume of DMSO was used inoculated for the control.
(§6) For all disk inhibition assays, bacterial cultures were grown in marine broth (Pronadisa #1217.00). Sterile swabs dipped into the cultures were used to inoculate Marine Agar plates with a bacterial lawn by smearing the culture over the surface. After inoculating the plates, discs with antibiotics, pharmaceuticals or control blanks were placed on each plate. Each concentration of antibiotic or pharmaceutical was tested with two replicates. After the disks were placed on the agar surface, plates were incubated overnight in the dark at 35° C. After incubation, plates were examined for zones of inhibition or clearing around control and treated disks. The diameter of any zone of clearing or inhibition was measured using Vernier calipers. There were two replicates per treatment, and the average was taken.

[4] = system: marine bacteria strain S29; experiment: disc inhibition assay, strain S29; assay type: cell-based, Bacillus hwajinpoensis; settings: for zone of inhibition at 50 µg/disc: Guptibacillus hwajinpoensis, S29, 24 h
Procedure: as §3, §4, §5, §6

[5] = system: marine bacteria strain S16; experiment: disc inhibition assay, strain S16; assay type: cell-based, Pseudoalteromonas piscicida; settings: for zone of inhibition at 50 µg/disc: Pseudoalteromonas piscicida, S16, 24 h
Procedure: as §3, §4, §5, §6

[6] = system: marine bacteria strain S4; experiment: disc inhibition assay, strain S4; assay type: cell-based, Bacillus algicola; settings: for zone of inhibition at 50 µg/disc: Guptibacillus algicola, S4, 24 h
Procedure: as §3, §4, §5, §6

[7] = system: marine bacteria strain S14; experiment: disc inhibition assay, strain S14; assay type: cell-based, Vibrio probioticus; settings: strain 14, 50 μg of compound per disc
Procedure: as §3, §4
(§7) Disks comprising the compounds to be tested were prepared as follows. The antibacterial assay, the pure compounds were made up to a concentration of 2 mgml^−1 in DMSO. […] Equivalent volume of DMSO was used inoculated for the control.
as §6

[8] = system: marine bacteria strain S9; experiment: disc inhibition assay, strain S9; assay type: cell-based, Bacillus algicola; settings: for zone of inhibition at 50 µg/disc: Guptibacillus algicola, S9, 24 h
Procedure: as §3, §4, §5, §6

[9] = system: marine bacteria strain S10; experiment: disc inhibition assay, strain S10; assay type: cell-based, Halobacillus trueperi; settings: for zone of inhibition at 50 µg/disc: Halobacillus trueperi, S10, 24 h
Procedure: as §3, §4, §5, §6

[10] = system: marine bacteria strain S18; experiment: disc inhibition assay, strain S18; assay type: cell-based, Microbacterium esteraromaticum; settings: for zone of inhibition at 50 µg/disc: Microbacterium esteraromaticum, S18, 24 h
Procedure: as §3, §4, §7, §6

[11] = system: marine bacteria strain S3; experiment: disc inhibition assay, strain S3; assay type: cell-based, Erythrobacter aquimaris; settings: for zone of inhibition at 50 µg/disc: Qipengyuania aquimaris, S3, 24 h
Procedure: as §3, §4, §5, §6

[12] = system: marine bacteria strain S27; experiment: disc inhibition assay, strain S27; assay type: cell-based, Tenacibaculum lutimaris; settings: strain 27, 50 μg of compound per disc
Procedure: as §3, §4, §5, §6

[13] = system: marine bacteria strain S28; experiment: disc inhibition assay, strain S28; assay type: cell-based, Arthrobacter protophormial; settings: for zone of inhibition at 50 µg/disc: Arthrobacter, S28, 24 h
Procedure: as §3, §4, §5, §6

[14] = system: marine bacteria strain S17; experiment: disc inhibition assay, strain S17; assay type: cell-based, Gordonia terrae; settings: for zone of inhibition at 50 µg/disc: Gordonia terrae, S17, 24 h
Procedure: as §3, §4, §5, §6

[15] = system: marine bacteria strain S1; experiment: disc inhibition assay, strain S1; assay type: cell-based, Rhodovulum iodosum; settings: strain 1, 50 μg of compound per disc
Procedure: as §3, §4, §5, §6

[16] = strain 16, 50 μg of compound per disc
[17] = strain 9, 50 μg of compound per disc, read-out: zone of inhibition
[18] = strain 30, 50 μg of compound per disc
[19] = strain 29, 50 μg of compound per disc
[20] = strain 4, 50 μg of compound per disc
[21] = strain 9, 50 μg of compound per disc
[22] = strain 10, 50 μg of compound per disc
[23] = strain 18, 50 μg of compound per disc
[24] = strain 28, 50 μg of compound per disc
[25] = strain 3, 50 μg of compound per disc
[26] = strain 17, 50 μg of compound per disc

SMILES | LD50 [1] | zone of inhibition [5, 16] | zone of inhibition [7] | zone of inhibition [15] | zone of inhibition [3, 18] | zone of inhibition [4, 19] | zone of inhibition [6, 20] | zone of inhibition [8, 21] | zone of inhibition [9, 22] | zone of inhibition [10, 23] | zone of inhibition [12] | zone of inhibition [13, 24] | zone of inhibition [11, 25] | zone of inhibition [14, 26] | further results
CCCCCCCCCCC(CCCCCCCC)C(=O)N1CCCCC1 (stereo not shown) [Compound 12.10] | >25 µg/mL |  |  |  |  |  |  |  |  |  |  |  |  |  | percentage of cyprids that settled ([2]; 0.2 ug/ml): 12.5%; percentage of cyprids that settled ([2]; 1 ug/ml): 13.00%; percentage of cyprids that settled ([2]; 5 ug/ml): 11.40%; percentage of cyprids that settled ([2]; 25 ug/ml): 17.88%
CCCCCCC(C(=O)N1CCCCC1)c1ccccc1 (stereo not shown) [Compound 12.11] | >25 µg/mL |  |  |  |  |  |  |  |  |  |  |  |  |  | 
CCCCC(CCCC)C(=O)N1CCCCC1 [Compound 12.2, 2-Butyl-1-(piperidin-1-yl)hexan-1-one] |  | − | − | − |  |  |  |  |  |  |  |  |  |  | zone of inhibition at 50 µg/disc ([3]; strain 30, 50 μg of compound per disc, read-out: zone of inhibition): 2 to 5 mm; zone of inhibition at 50 µg/disc ([4]; strain 29, 50 μg of compound per disc, read-out: zone of inhibition): 2 to 5 mm; zone of inhibition at 50 µg/disc ([6]; strain 4, 50 μg of compound per disc, read-out: zone of inhibition): 2 to 5 mm; zone of inhibition at 50 µg/disc [8, 17]: 2 to 5 mm; zone of inhibition at 50 µg/disc ([9]; strain 10, 50 μg of compound per disc, read-out: zone of inhibition): 2 to 5 mm; zone of inhibition at 50 µg/disc ([10]; strain 18, 50 μg of compound per disc, read-out: zone of inhibition): 5 to 10 mm; zone of inhibition at 50 µg/disc ([11]; strain 3, 50 μg of compound per disc, read-out: zone of inhibition): 5 to 10 mm; zone of inhibition at 50 µg/disc ([12]; Tenacibaculum lutimaris, S27, 24 h, read-out: zone of inhibition): 2 to 5 mm; percentage of cyprids that settled ([2]; 0.2 ug/ml): 8.94%; percentage of cyprids that settled ([2]; 1 ug/ml): 8.42%; percentage of cyprids that settled ([2]; 5 ug/ml): 8.37%; percentage of cyprids that settled ([2]; 25 ug/ml): 0%; zone of inhibition at 50 µg/disc ([13]; strain 28, 50 μg of compound per disc, read-out: zone of inhibition): 2 to 5 mm; zone of inhibition at 50 µg/disc ([14]; strain 17, 50 μg of compound per disc, read-out: zone of inhibition): 2 to 5 mm
CCCCCCC(CCCCCC)C(=O)N1CCCCC1 [Compound 12.12] | 0.2 to 1 µg/mL |  |  |  |  |  |  |  |  |  |  |  |  |  | 
CN(C)C(=O)C(CC[N+]1(O)CCC(O)(c2ccc(Cl)cc2)CC1)(c1ccccc1)c1ccccc1 (stereo not shown) [Compound 5.1] |  |  | − | − | − | − | − | − | − | − | − | − |  |  | zone of inhibition at 50 µg/disc [5]: 2 to 5 mm; zone of inhibition at 50 µg/disc [11]: 2 to 5 mm; zone of inhibition at 50 µg/disc [14]: 2 to 5 mm
CN1CCC(O)(c2ccc(Cl)cc2)CC1 [Compound 4.6] |  |  | − | − | − | − | − |  | − | − | − | − | − | − | zone of inhibition at 50 µg/disc [5]: 2 to 5 mm; zone of inhibition at 50 µg/disc [8, 17]: 2 to 5 mm; IC50 ([2]; Amphibalanus amphitrite, 24 h, Table 3(a), concentration that caused 50% settlement inhibition, 24 hours, cyprids, read-out: ED50 (the source's name)): < 10 µg/mL
CCCCCC(=O)N(C)C [Compound 11.2] |  |  | − | − | − | − | − | − | − | − | − | − | − | − | zone of inhibition at 50 µg/disc ([5]; strain 16, 50 μg of compound per disc, read-out: zone of inhibition): 2 to 5 mm; antibacterial activity in words ([5]; strain S16): susceptible
CCCCC(CCCCC(O)CO)C(=O)N1CCCCC1 (stereo not shown) [Compound 12.6] |  | − | − | − | − | − | − | − | − | − | − | − | − | − | 
CC(=O)OC1(c2ccc(Cl)cc2)CCN(CCC(C(=O)N(C)C)(c2ccccc2)c2ccccc2)CC1 [Compound 5.3] |  | − | − | − |  |  |  |  |  |  | − |  |  |  | zone of inhibition at 50 µg/disc [3]: 2 to 5 mm; zone of inhibition at 50 µg/disc [4]: 2 to 5 mm; zone of inhibition at 50 µg/disc [6]: 2 to 5 mm; zone of inhibition at 50 µg/disc [8]: 2 to 5 mm; zone of inhibition at 50 µg/disc [9]: 5 to 10 mm; zone of inhibition at 50 µg/disc [10]: 2 to 5 mm; zone of inhibition at 50 µg/disc [11]: 5 to 10 mm; zone of inhibition at 50 µg/disc [13]: 2 to 5 mm; zone of inhibition at 50 µg/disc [14]: 2 to 5 mm
